Measured values taken from BindingDB's records for doi:10.7270/Q2N014XN (Srmlsc, 2007).
Structures can show the parent of a compound that is named as a salt.

target: T1, Diphosphomevalonate decarboxylase (Streptococcus pneumoniae serotype 2 (strain D39 / NCTC 7466), UniProt A0A0H2ZN59); experiment: S. pneumoniae DPM-DC inhibitor potency, dose response, biochemical, PK/LDH-coupled NADH fluorescence, hexokinase coupling counter-screen (AID 550); settings: not given
T1 sequence (A0A0H2ZN59 whole entry): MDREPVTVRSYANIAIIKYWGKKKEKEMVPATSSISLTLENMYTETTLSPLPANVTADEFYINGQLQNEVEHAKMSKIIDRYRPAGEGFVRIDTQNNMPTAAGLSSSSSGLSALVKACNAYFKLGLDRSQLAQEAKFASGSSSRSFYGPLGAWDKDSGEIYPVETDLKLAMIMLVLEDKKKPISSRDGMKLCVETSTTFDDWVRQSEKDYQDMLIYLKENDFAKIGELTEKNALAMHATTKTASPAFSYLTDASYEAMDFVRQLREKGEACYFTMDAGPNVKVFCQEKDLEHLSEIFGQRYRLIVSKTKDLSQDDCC

Structure (SMILES)	IC50
CCc1c(C)c(C#N)c2nc3ccccc3n2c1Nc1c(C)n(C)n(-c2ccccc2)c1=O [1-[(1,5-dimethyl-3-oxidanylidene-2-phenyl-pyrazol-4-yl)amino]-2-ethyl-3-methyl-pyrido[1,2-a]benzimidazole-4-carbonitrile]	> 10000 µM
COc1ccc(C(c2nnnn2CC2CCCO2)N2CCN(c3ccccc3)CC2)cc1 (stereo not drawn) [1-[(4-methoxyphenyl)-[1-(2-oxolanylmethyl)-5-tetrazolyl]methyl]-4-phenylpiperazine]	> 10000 µM
Cc1ccc2cc3cc(C(=O)N4CCCCCC4)oc3nc2c1 [1-azepanyl-(7-methyl-2-furo[2,3-b]quinolinyl)methanone]	58.1 µM
CCn1cc(C(=O)NCc2ccco2)c(=O)c2cc(F)c(N3CCN(C(=O)c4ccco4)CC3)cc21 [1-ethyl-6-fluoranyl-7-[4-(furan-2-ylcarbonyl)piperazin-1-yl]-N-(furan-2-ylmethyl)-4-oxidanylidene-quinoline-3-carboxamide]	16.7 µM
COCCn1cc(C(=O)NCCCN2CCC(C)CC2)c2c3ccccc3n(C)c2c1=O [1-keto-2-(2-methoxyethyl)-9-methyl-N-[3-(4-methylpiperidino)propyl]-beta-carboline-4-carboxamide]	27.2 µM
Cc1ccsc1C1C(C(=O)O)c2ccccc2C(=O)N1C (stereo not drawn) [1-keto-2-methyl-3-(3-methyl-2-thienyl)-3,4-dihydroisoquinoline-4-carboxylic acid]	> 10000 µM
O=C(c1noc2c1CCCC2)N1CCCCC1 [1-piperidinyl(4,5,6,7-tetrahydro-1,2-benzoxazol-3-yl)methanone]	> 10000 µM
CC1(C)C(C=C(Cl)Cl)C1C(=O)N1CCN(c2ccccc2)CC1 (stereo not drawn) [1-{[3-(2,2-dichlorovinyl)-2,2-dimethylcyclopropyl]carbonyl}-4-phenylpiperazine]	> 10000 µM
c1ccc2c(c1)nnn2Cc1nnc2sc(-c3ccc4c(c3)OCCO4)nn12 [1-{[6-(2,3-dihydro-1,4-benzodioxin-6-yl)[1,2,4]triazolo[3,4-b][1,3,4]thiadiazol-3-yl]methyl}-1H-1,2,3-benzotriazole]	83.8 µM
Nc1nc(N)c2sc3nc4c(cc3c2n1)CCC4 [2,3-Dihydro-1H-9-thia-5,7,10-triaza-cyclopenta[b]fluorene-6,8-diamine]	> 10000 µM
Cc1cc(C)c(S(=O)(=O)NCc2cn3c(C)csc3n2)cc1C [2,4,5-trimethyl-N-[(3-methyl-6-imidazo[2,1-b]thiazolyl)methyl]benzenesulfonamide]	> 10000 µM
Cc1cc(O)cc(C)n1 [2,6-dimethyl-1H-pyridin-4-one]	> 10000 µM
Cc1cc(C)c2c(n1)nn1c(N3CCN(c4ccccc4)CC3)cc(C)nc21 [2,8,10-trimethyl-4-(4-phenyl-1-piperazinyl)pyrido[2,3]pyrazolo[2,4-a]pyrimidine]	12.7 µM
O=C(CSc1nnnn1Cc1ccccc1)NCCc1ccccc1 [2-(1-Benzyl-1H-tetrazol-5-ylsulfanyl)-N-phenethyl-acetamide]	> 10000 µM
O=C(NCc1ccco1)c1ccccc1NS(=O)(=O)c1ccc2c(c1)OCCO2 [2-(2,3-dihydro-1,4-benzodioxin-6-ylsulfonylamino)-N-(2-furanylmethyl)benzamide]	42.4 µM
Cc1ccc(C)c(-c2nc3cc(N)ccc3o2)c1 [2-(2,5-Dimethyl-phenyl)-benzooxazol-5-ylamine]	6.06 µM
CCOc1ccccc1OCC(=O)Nc1ccc(N2CCCCC2)cc1 [2-(2-ethoxyphenoxy)-N-(4-piperidin-1-ylphenyl)acetamide]	> 10000 µM
Cc1oc2cc(O)ccc2c(=O)c1N1C(=O)c2ccccc2C1=O [2-(2-methyl-7-oxidanyl-4-oxidanylidene-chromen-3-yl)isoindole-1,3-dione]	50.5 µM
Cc1ccccc1-c1nc2cc(N)ccc2o1 [2-(2-methylphenyl)-1,3-benzoxazol-5-amine]	10.1 µM
O=c1c2ccccc2sn1-c1cc(S(=O)(=O)N2CCOCC2)ccc1N1CCOCC1 [2-(2-morpholin-4-yl-5-morpholin-4-ylsulfonyl-phenyl)-1,2-benzothiazol-3-one]	15.4 µM
CCCOC(=O)Cc1n[nH]c(=O)[nH]c1=O [2-(3,5-dioxo-2H-1,2,4-triazin-6-yl)acetic acid propyl ester]	> 10000 µM
CCc1nnc(NC(=O)CSc2nnc(COc3ccccc3)n2Cc2ccccc2)s1 [2-(4-Benzyl-5-phenoxymethyl-4H-[1,2,4]triazol-3-ylsulfanyl)-N-(5-ethyl-[1,3,4]thiadiazol-2-yl)-acetamide]	> 10000 µM

Structure (SMILES)	IC50
CCc1nnc2sc(-c3ccc(NC(=O)CSc4ccc(Cl)cc4)cc3)nn12 [2-(4-chlorophenyl)sulfanyl-N-[4-(3-ethyl-[1,2,4]triazolo[3,4-b][1,3,4]thiadiazol-6-yl)phenyl]acetamide]	39.6 µM
CCOC(=O)COc1ccc2nsnc2c1Cl [2-(4-chloropiazthiol-5-yl)oxyacetic acid ethyl ester]	> 10000 µM
CCOc1ccc(-c2nnc(-c3ccncc3)o2)cc1 [2-(4-ethoxyphenyl)-5-pyridin-4-yl-1,3,4-oxadiazole]	52.9 µM
CCOC(=O)c1cc2nc(Nc3ccc(OC)cc3)sc2s1 [2-(4-methoxyanilino)-5-thieno[3,2-d]thiazolecarboxylic acid ethyl ester]	44.6 µM
COc1ccc(-c2cc(C(=O)OCC(=O)N(C)C)c3ccccc3n2)cc1 [2-(4-methoxyphenyl)-4-quinolinecarboxylic acid [2-(dimethylamino)-2-oxoethyl] ester]	41.1 µM
Cc1ccc(-n2sc3ccccc3c2=O)cc1S(=O)(=O)N1CCCCC1 [2-(4-methyl-3-piperidin-1-ylsulfonyl-phenyl)-1,2-benzothiazol-3-one]	3.73 µM
CCCc1nnc(NC(=O)CN2CCOCC2)s1 [2-(4-morpholinyl)-N-(5-propyl-1,3,4-thiadiazol-2-yl)acetamide;hydrochloride]	> 10000 µM
O=c1c2ccccc2sn1-c1ccc(S(=O)(=O)N2CCCCC2)cc1 [2-(4-piperidin-1-ylsulfonylphenyl)-1,2-benzothiazol-3-one]	2.15 µM
c1ccc(N2CCN(c3cnccn3)CC2)nc1 [2-(4-pyridin-2-ylpiperazin-1-yl)pyrazine]	> 10000 µM
O=c1c2ccccc2sn1-c1ccc(S(=O)(=O)N2CCCC2)cc1 [2-(4-pyrrolidin-1-ylsulfonylphenyl)-1,2-benzothiazol-3-one]	2.65 µM
Cc1cc(=O)oc2cc(OC(C)C(=O)O)c(Cl)cc12 (stereo not drawn) [2-(6-chloranyl-4-methyl-2-oxidanylidene-chromen-7-yl)oxypropanoic acid]	> 10000 µM
Cc1ccc2oc(=O)c3cnn(CC(=O)NC4CCN(Cc5ccccc5)CC4)c3c2c1 [2-(8-methyl-4-oxidanylidene-chromeno[4,3-c]pyrazol-1-yl)-N-[1-(phenylmethyl)piperidin-4-yl]ethanamide]	> 10000 µM
CCCCCn1c(SCC#N)nc2cc(C(=O)NCC3CCCO3)ccc2c1=O (stereo not drawn) [2-(cyanomethylsulfanyl)-4-oxidanylidene-N-(oxolan-2-ylmethyl)-3-pentyl-quinazoline-7-carboxamide]	> 10000 µM
Cc1cc(C(=O)CSc2nnnn2-c2ccc(Cl)cc2)c(C)n1CC1CCCO1 (stereo not drawn) [2-[1-(4-chlorophenyl)tetrazol-5-yl]sulfanyl-1-[2,5-dimethyl-1-(oxolan-2-ylmethyl)pyrrol-3-yl]ethanone]	> 10000 µM
Cc1cc(C)c2c(=O)n(CC(=O)N3CCC(Cc4ccccc4)CC3)sc2n1 [2-[2-(4-benzylpiperidin-1-yl)-2-oxoethyl]-4,6-dimethyl-[1,2]thiazolo[5,4-b]pyridin-3-one]	221 µM
O=C(CN1c2cccc3cccc(c23)S1(=O)=O)N1CCOCC1 [2-[2-(4-morpholinyl)-2-oxoethyl]-2H-naphtho[1,8-cd]isothiazole 1,1-dioxide]	21.9 µM
COC(=O)Cn1c(=NC(=O)CSC(C)=O)sc2ccccc21 [2-[2-[2-(acetylthio)-1-oxoethyl]imino-1,3-benzothiazol-3-yl]acetic acid methyl ester]	> 10000 µM
COc1ccc(C(O)Cn2c(=N)n(CCCN(C)C)c3ccccc32)cc1 (stereo not drawn) [2-[2-azanylidene-3-[3-(dimethylamino)propyl]benzimidazol-1-yl]-1-(4-methoxyphenyl)ethanol;hydrochloride]	> 10000 µM
COCCNC(=O)C(C#N)c1nc2ccccc2nc1N1CCCCCC1 (stereo not drawn) [2-[3-(1-azepanyl)-2-quinoxalinyl]-2-cyano-N-(2-methoxyethyl)acetamide]	190 µM
COc1ccc(-c2ccc(-c3nnc(-c4ccncc4)o3)cc2)cc1 [2-[4-(4-methoxyphenyl)phenyl]-5-(4-pyridyl)-1,3,4-oxadiazole]	123 µM
COC(=O)c1c(NC(=O)c2ccoc2C)sc2c1CCC2 [2-[(2-methyl-3-furoyl)amino]-5,6-dihydro-4H-cyclopenta[b]thiophene-3-carboxylic acid methyl ester]	98.9 µM

same assay, conditions: inactive by the depositor's call

Structure (SMILES)	IC50
Clc1cccc(-c2ccc(C=Nn3cnnc3)o2)c1 [1-[5-(3-chlorophenyl)-2-furanyl]-N-(1,2,4-triazol-4-yl)methanimine]	101 µM
CCn1nc(-c2cccs2)nc2c(=O)n(C)c(=O)nc1-2 [1-ethyl-6-methyl-3-thiophen-2-yl-pyrimido[5,4-e][1,2,4]triazine-5,7-dione]	4.73 µM
Cc1cc(C)c2c(=O)n(CC(=O)NCCCN3CCN(c4ccccc4F)CC3)sc2n1 [2-(4,6-dimethyl-3-oxidanylidene-[1,2]thiazolo[5,4-b]pyridin-2-yl)-N-[3-[4-(2-fluorophenyl)piperazin-1-yl]propyl]ethanamide]	36.6 µM
O=c1cccccc1NCc1ccccc1 [2-(benzylamino)cyclohepta-2,4,6-trien-1-one]	278 µM
O=c1c2ccccc2[se]n1-c1ccccc1 [2-Phenyl-benzo[d]isoselenazol-3-one]	0.513 µM
